In patent US9458137B2, “Substituted indol-5-ol derivatives and their therapeutical applications” (NantBioScience, Inc., priority 2012, dated 2016):

Tests used:
Test in all cases: Kinase panel activity
Assay type in all cases: biochemical
Conditions in all cases: 0.1 μM, ATP Km
ALK4(h) = ALK4(h) (Homo sapiens, UniProt P36896)
Method: (§1) The effect of NTW-3475 on kinase activity was tested for a wide range of kinases and is shown in Table 2: Summary Sheet, Activity % ATP Concentration: Km

ASK1(h) = ASK1(h) (Homo sapiens, UniProt Q99683)
Method: as §1

Ab1(Y253F)(h) = Ab1(Y253F)(h) (Homo sapiens, UniProt P00519, Y253F)
Method: as §1

Ab1(m) = Ab1(m) (Mus musculus, UniProt P00520)
Method: as §1

Aurora-A(h) = molecular target: T1, Aurora-A(h) (Homo sapiens, UniProt O14965)
T1 construct: purchased Millipore (KinaseProfiler service)
Method: as §1

Aurora-C(h) = Aurora-C(h) (Homo sapiens, UniProt Q9UQB9)
Method: as §1

CDK5/p35(h) = CDK5/p35(h) (Homo sapiens, UniProt Q00535)
Method: as §1

CDK7/cyclinH/MAT1(h) = CDK7/cyclinH/MAT1(h) (Homo sapiens, UniProt P50613)
Method: as §1

CK1δ(h) = CK1δ(h) (Homo sapiens, UniProt P48730)
Method: as §1

DCAMKL2(h) = DCAMKL2(h) (Homo sapiens, UniProt Q8N568)
Method: as §1

DYRK2(h) = molecular target: T2, DYRK2(h) (Homo sapiens, UniProt Q92630)
T2 construct: purchased Millipore (KinaseProfiler service)
Method: as §1

EGFR(L861Q)(h) = molecular target: T3, EGFR(L861Q)(h) (Homo sapiens, UniProt P00533, L861Q)
T3 construct: purchased Millipore (KinaseProfiler service)
Method: as §1

EphA3(h) = molecular target: T4, EphA3(h) (Homo sapiens, UniProt P29320)
T4 construct: purchased Millipore (KinaseProfiler service)
Method: as §1

FGFR3(h) = FGFR3(h) (Homo sapiens, UniProt P22607)
Method: as §1

Fgr(h) = Fgr(h) (Homo sapiens, UniProt P09769)
Method: as §1

Fms(h) = Fms(h) (Homo sapiens, UniProt P07333)
Method: as §1

HIPK3(h) = HIPK3(h) (Homo sapiens, UniProt Q9H422)
Method: as §1

Haspin(h) = Haspin(h) (Homo sapiens, UniProt Q8TF76)
Method: as §1

Hck(h) = Hck(h) (Homo sapiens, UniProt P08631)
Method: as §1

LIMK1(h) = LIMK1(h) (Homo sapiens, UniProt P53667)
Method: as §1

Lyn(m) = Lyn(m) (Mus musculus, UniProt P25911)
Method: as §1

MAPK2(m) = MAPK2(m) (Mus musculus, UniProt P63085)
Method: as §1

MAPKAP-K2(h) = molecular target: T5, MAPKAP-K2(h) (Homo sapiens, UniProt P49137)
T5 construct: purchased Millipore (KinaseProfiler service)
Method: as §1

MLK1(h) = molecular target: T6, MLK1(h) (Homo sapiens, UniProt P80192)
T6 construct: purchased Millipore (KinaseProfiler service)
Method: as §1

MRCKβ(h) = molecular target: T7, MRCKβ(h) (Homo sapiens, UniProt Q9Y5S2)
T7 construct: purchased Millipore (KinaseProfiler service)
Method: as §1

Met(h) = molecular target: T8, Met(h) (Homo sapiens, UniProt P08581)
T8 construct: purchased Millipore (KinaseProfiler service)
Method: as §1

NEK11(h) = NEK11(h) (Homo sapiens, UniProt Q8NG66)
Method: as §1

NEK6(h) = NEK6(h) (Homo sapiens, UniProt Q9HC98)
Method: as §1

PASK(h) = PASK(h) (Homo sapiens, UniProt Q96RG2)
Method: as §1

PDGFRα(V561D)(h) = PDGFRα(V561D)(h) (Homo sapiens, UniProt P16234, V561D)
Method: as §1

PKCη(h) = PKCη(h) (Homo sapiens, UniProt P24723)
Method: as §1

PhKγ2(h) = PhKγ2(h) (Homo sapiens, UniProt P15735)
Method: as §1

Pim-1(h) = Pim-1(h) (Homo sapiens, UniProt P11309)
Method: as §1

Pim-2(h) = Pim-2(h) (Homo sapiens, UniProt Q9P1W9)
Method: as §1

ROCK-I(h) = molecular target: T9, ROCK-I(h) (Homo sapiens, UniProt Q13464)
T9 construct: purchased Millipore (KinaseProfiler service)
Method: as §1

SGK(h) = molecular target: T10, SGK(h) (Homo sapiens, UniProt O00141)
T10 construct: purchased Millipore (KinaseProfiler service)
Method: as §1

Snk(h) = molecular target: T11, Snk(h) (Homo sapiens, UniProt Q9NYY3)
T11 construct: purchased Millipore (KinaseProfiler service)
Method: as §1

Tec(h) activated = molecular target: T12, Tec(h) activated (Homo sapiens, UniProt P42680)
T12 construct: purchased Millipore (KinaseProfiler service)
Method: as §1

TrkA(h) = molecular target: T13, TrkA(h) (Homo sapiens, UniProt P04629)
T13 construct: purchased Millipore (KinaseProfiler service)
Method: as §1

Txk(h) = Txk(h) (Homo sapiens, UniProt P42681)
Method: as §1

CK1δ(h), sequence (P48730 whole entry): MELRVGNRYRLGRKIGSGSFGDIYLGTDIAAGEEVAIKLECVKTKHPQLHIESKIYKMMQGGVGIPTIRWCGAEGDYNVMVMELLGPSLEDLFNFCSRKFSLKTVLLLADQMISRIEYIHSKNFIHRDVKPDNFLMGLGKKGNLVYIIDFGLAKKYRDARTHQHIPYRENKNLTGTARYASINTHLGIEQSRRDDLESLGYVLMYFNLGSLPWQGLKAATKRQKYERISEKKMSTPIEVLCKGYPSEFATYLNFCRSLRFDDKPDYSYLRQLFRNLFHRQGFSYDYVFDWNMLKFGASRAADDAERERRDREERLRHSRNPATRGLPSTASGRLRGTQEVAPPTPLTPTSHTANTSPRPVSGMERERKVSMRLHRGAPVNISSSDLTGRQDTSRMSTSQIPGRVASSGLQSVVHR
T6 sequence (P80192 whole entry): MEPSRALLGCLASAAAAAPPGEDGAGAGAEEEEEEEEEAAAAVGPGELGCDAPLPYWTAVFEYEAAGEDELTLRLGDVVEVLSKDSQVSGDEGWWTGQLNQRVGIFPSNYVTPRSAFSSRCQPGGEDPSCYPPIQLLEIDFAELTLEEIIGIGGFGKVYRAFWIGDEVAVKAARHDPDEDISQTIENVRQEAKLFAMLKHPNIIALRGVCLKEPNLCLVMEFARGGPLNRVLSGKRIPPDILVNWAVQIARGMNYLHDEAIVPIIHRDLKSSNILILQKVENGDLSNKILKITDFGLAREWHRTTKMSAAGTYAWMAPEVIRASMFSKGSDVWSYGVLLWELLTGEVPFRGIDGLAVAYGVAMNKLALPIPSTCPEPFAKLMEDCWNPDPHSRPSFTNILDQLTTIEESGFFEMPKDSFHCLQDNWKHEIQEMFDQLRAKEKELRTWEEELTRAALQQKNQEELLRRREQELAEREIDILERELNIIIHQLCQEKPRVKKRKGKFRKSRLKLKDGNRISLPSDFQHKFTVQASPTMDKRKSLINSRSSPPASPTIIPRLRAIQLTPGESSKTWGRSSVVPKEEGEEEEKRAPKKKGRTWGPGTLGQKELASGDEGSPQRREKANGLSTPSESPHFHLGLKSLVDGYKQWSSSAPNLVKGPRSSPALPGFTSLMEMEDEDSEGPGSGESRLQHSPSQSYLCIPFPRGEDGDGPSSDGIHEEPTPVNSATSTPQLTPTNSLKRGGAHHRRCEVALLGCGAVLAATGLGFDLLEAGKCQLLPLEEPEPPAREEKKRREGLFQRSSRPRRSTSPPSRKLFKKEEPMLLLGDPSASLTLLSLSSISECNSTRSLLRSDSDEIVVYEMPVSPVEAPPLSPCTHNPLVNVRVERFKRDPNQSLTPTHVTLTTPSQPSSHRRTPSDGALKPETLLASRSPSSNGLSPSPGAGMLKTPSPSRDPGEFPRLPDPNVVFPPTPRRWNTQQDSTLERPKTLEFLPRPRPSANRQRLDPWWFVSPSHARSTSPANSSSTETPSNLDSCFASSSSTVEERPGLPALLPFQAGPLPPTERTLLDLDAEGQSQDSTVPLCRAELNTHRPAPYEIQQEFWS
T8 sequence (P08581 25-1390): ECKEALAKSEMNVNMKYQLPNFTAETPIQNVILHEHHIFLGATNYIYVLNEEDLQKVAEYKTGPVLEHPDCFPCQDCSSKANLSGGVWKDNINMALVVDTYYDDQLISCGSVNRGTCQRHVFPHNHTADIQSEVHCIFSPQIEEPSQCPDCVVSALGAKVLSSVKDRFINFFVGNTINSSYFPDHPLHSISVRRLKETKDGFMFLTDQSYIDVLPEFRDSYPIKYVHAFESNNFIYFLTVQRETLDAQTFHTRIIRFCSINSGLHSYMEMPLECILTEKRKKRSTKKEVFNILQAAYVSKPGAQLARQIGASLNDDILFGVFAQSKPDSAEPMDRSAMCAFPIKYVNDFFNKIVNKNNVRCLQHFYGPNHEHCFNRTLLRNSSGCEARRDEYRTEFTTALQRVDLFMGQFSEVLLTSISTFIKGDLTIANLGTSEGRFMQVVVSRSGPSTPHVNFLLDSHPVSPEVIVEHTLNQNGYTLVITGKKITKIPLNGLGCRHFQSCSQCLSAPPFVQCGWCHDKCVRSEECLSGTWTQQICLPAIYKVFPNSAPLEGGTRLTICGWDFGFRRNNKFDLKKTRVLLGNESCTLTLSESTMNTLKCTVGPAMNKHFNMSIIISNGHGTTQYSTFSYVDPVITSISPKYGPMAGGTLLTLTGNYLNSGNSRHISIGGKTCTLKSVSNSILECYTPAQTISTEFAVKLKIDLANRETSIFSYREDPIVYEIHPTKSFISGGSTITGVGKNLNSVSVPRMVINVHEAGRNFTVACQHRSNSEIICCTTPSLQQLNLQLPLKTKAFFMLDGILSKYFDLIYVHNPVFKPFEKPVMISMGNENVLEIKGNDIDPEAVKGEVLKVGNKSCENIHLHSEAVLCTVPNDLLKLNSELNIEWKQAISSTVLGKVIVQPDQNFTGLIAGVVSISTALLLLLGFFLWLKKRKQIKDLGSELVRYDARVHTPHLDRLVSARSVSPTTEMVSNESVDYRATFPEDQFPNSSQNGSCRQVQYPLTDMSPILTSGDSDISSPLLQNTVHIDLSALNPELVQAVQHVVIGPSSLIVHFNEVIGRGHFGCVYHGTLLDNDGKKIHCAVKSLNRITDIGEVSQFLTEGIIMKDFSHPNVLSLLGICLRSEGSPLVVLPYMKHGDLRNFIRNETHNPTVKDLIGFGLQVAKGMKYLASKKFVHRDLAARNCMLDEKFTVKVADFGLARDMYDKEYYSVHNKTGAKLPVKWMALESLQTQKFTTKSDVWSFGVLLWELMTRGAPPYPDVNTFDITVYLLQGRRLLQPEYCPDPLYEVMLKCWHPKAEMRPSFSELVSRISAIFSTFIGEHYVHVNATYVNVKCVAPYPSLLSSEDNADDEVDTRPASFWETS
ALK4(h), sequence (P36896 24-505): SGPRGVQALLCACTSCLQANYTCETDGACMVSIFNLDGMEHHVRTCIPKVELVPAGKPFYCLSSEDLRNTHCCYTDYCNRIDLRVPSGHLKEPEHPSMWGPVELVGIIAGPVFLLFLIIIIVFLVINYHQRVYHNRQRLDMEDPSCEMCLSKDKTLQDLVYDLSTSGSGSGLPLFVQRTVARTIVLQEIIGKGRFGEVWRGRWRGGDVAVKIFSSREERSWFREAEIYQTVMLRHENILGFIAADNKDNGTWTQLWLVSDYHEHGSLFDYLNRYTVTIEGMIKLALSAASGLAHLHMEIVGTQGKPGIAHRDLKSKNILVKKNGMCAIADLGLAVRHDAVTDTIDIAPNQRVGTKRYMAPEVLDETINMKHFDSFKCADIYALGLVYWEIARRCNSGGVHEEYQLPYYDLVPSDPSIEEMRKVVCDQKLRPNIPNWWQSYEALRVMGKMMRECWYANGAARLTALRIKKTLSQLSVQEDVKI
Fgr(h), sequence (P09769 whole entry): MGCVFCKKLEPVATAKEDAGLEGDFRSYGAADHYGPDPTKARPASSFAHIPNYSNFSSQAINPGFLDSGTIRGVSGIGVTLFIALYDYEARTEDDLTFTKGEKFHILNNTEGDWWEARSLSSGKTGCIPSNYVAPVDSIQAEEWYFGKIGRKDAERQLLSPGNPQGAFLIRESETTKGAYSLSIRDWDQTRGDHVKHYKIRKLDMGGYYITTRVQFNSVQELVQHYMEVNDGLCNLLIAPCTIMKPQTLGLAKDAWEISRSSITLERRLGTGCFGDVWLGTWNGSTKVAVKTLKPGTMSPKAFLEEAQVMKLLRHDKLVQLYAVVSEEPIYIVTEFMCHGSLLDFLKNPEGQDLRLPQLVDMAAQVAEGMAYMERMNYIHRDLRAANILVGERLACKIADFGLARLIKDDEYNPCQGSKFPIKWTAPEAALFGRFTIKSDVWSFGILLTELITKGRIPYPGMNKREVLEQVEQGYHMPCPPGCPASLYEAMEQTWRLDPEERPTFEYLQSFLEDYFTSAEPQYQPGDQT
CDK5/p35(h), sequence (Q00535 whole entry): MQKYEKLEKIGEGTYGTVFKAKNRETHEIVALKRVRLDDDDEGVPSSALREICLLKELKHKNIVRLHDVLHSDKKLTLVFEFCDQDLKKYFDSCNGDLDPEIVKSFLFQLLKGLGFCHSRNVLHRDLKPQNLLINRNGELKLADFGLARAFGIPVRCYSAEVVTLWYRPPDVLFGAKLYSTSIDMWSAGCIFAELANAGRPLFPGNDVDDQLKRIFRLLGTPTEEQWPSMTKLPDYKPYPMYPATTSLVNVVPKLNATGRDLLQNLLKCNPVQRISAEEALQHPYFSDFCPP
CDK5/p35(h), sequence (Q15078 whole entry partner): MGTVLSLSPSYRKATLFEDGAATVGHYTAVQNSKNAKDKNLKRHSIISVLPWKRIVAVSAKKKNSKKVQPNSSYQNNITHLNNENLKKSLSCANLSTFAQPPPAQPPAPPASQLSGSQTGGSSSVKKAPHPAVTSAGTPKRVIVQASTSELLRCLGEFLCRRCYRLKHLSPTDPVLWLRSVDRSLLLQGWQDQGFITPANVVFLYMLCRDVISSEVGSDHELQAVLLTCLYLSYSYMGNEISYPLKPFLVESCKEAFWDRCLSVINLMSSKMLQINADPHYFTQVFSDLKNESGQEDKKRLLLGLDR
MAPK2(m), sequence (P63085 whole entry): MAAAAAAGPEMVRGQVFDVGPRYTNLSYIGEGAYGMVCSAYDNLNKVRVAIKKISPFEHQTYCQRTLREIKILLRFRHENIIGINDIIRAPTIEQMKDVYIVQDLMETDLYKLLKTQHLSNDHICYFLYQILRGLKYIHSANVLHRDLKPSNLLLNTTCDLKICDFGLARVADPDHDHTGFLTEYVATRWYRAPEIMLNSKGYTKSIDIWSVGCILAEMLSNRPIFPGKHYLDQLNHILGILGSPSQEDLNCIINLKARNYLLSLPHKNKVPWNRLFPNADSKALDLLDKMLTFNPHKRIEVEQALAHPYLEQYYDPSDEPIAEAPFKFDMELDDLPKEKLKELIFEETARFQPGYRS

Activity % (ALK4(h)): 28% | Activity % (ASK1(h)): 112% | Activity % (Ab1(Y253F)(h)): −2% | Activity % (Ab1(m)): −2% | Activity % (Aurora-A(h)): 7% | Activity % (Aurora-C(h)): 21% | Activity % (CDK5/p35(h)): 77% | Activity % (CDK7/cyclinH/MAT1(h)): 44% | Activity % (CK1δ(h)): 91% | Activity % (DCAMKL2(h)): 87% | Activity % (DYRK2(h)): 96% | Activity % (EGFR(L861Q)(h)): 52% | Activity % (EphA3(h)): 22% | Activity % (FGFR3(h)): 0% | Activity % (Fgr(h)): 2% | Activity % (Fms(h)): 8% | Activity % (HIPK3(h)): 88% | Activity % (Haspin(h)): 96% | Activity % (Hck(h)): 18% | Activity % (LIMK1(h)): 15% | Activity % (Lyn(m)): 1% | Activity % (MAPK2(m)): 101% | Activity % (MAPKAP-K2(h)): 105% | Activity % (MLK1(h)): 7% | Activity % (MRCKβ(h)): 108% | Activity % (Met(h)): 11% | Activity % (NEK11(h)): 102% | Activity % (NEK6(h)): 90% | Activity % (PASK(h)): 91% | Activity % (PDGFRα(V561D)(h)): 8% | Activity % (PKCη(h)): 101% | Activity % (PhKγ2(h)): 77% | Activity % (Pim-1(h)): 114% | Activity % (Pim-2(h)): 96% | Activity % (ROCK-I(h)): 93% | Activity % (SGK(h)): 107% | Activity % (Snk(h)): 97% | Activity % (Tec(h) activated): 52% | Activity % (TrkA(h)): 2% | Activity % (Txk(h)): 20%
Structure (SMILES): Cc1cc2c(F)c(Oc3nc(Nc4cc(C5CC5)[nH]n4)cc(N4CCN(C)CC4)n3)cc(F)c2[nH]1 [NTW-3475]
